From article PMC7395068, “The evolution of strategies to minimise the risk of human drug-induced liver injury (DILI) in drug discovery and development” (Archives of Toxicology, 2020)
Like-named read-outs stand apart in the source and are kept apart here.

Key:
[1] = Plasma free fraction (fu) and unbound Cmax (Cmax,u); type: in vitro ADME, human
hLiMTs [2] = system: hLiMTs
HepaRG spheroids [3] = system: HepaRG spheroids
PHH = settings: cited from earlier work; for PHH ATP <100uM: In vitro Assay, ref Proctor 2017
hLiMTs [4] = settings: cited from earlier work; for hLiMTs ATP <100uM: In vitro Assay, ref Proctor 2017
[5] = cited from earlier work
hLiMTs [6] = experiment: Combined HCI (HCS) and cellular ATP 3D assay in hLiMTs; settings: for AC50 / minimal effective concentration: Homo sapiens
HepaRG spheroids [7] = experiment: Combined HCI (HCS) and cellular ATP 3D assay in HepaRG spheroids; settings: for AC50 / minimal effective concentration: Homo sapiens
[8] = cited from earlier work; remark: listed apart in the source
[9] = system: HepG2 C3A spheroid, BSEP, Glu/Gal in HepG2 cells, bioactivation; settings: cited from earlier work; for Bayesian Machine Learning: ref Williams 2019
[10] = cited from earlier work; remark: listed apart in the source
HepG2 cells = settings: cited from earlier work
PHH spheroids = settings: cited from earlier work
[11] = plasma free fraction; cited from earlier work
[12] = system: THLE-Null and THLE-3A4 cells; settings: In vitro Assay; ref Gustafsson 2014; cited from earlier work
[13] = system: isolated mouse liver mitochondria; settings: In vitro Assay; ref Porceddu 2012; cited from earlier work
rBsep = settings: In vitro Assay; ref Dawson 2012; cited from earlier work
[14] = HepaRG, read-out: ATP endpoint AC50
[15] = HepaRG, read-out: HCS endpoint AC50
[16] = Microtissue model structural based (HCI), combined HCS and ATP, MEC < 25 × Cmax.tot cut-off

CO[C@@]12[C@H](COC(N)=O)C3=C(C(=O)C(C)=C(N)C3=O)N1C[C@@H]1N[C@@H]12 [mitomycin C]
Human plasma Cmax,u ([1]; human): 5.396 µM
hLiMTs <10 uM All (hLiMTs [2]): +ve (key: +ve: <10 uM)
hLiMTs <100x Avg Cmaxu ATP (hLiMTs [2]; human): +ve (key: +ve: <100x Avg Cmaxu)
hLiMTs <100x Avg Cmaxu All (hLiMTs [2]; human): +ve (key: +ve: <100x Avg Cmaxu)
hLiMTs <100x Avg Cmaxu HCS (hLiMTs [2]; human): +ve (key: +ve: <100x Avg Cmaxu)
hLiMTs Cmax max All (hLiMTs [2]; human): +ve
hLiMTs Cmax min All (hLiMTs [2]; human): +ve
HepaRG <10 uM All (HepaRG spheroids [3]): +ve (key: +ve: <10 uM)
HepaRG <100x Avg Cmaxu ATP (HepaRG spheroids [3]; human): +ve (key: +ve: <100x Avg Cmaxu)
HepaRG <100x Avg Cmaxu All (HepaRG spheroids [3]; human): +ve (key: +ve: <100x Avg Cmaxu)
HepaRG <100x Avg Cmaxu HCS (HepaRG spheroids [3]; human): +ve (key: +ve: <100x Avg Cmaxu)
HepaRG Cmax max All (HepaRG spheroids [3]; human): +ve
HepaRG Cmax min All (HepaRG spheroids [3]; human): +ve
PHH/100uM, Proctor (2017) (PHH): +VE (key: +VE: IC50 threshold of 100 µM)
hLiMTs/100uM, Proctor (2017) (hLiMTs [4]): +VE (key: +VE: IC50 threshold of 100 µM)
Cmax ([5]; human, in vivo): 7.1 µM
AC50 (hLiMTs [6]; read-out: ATP endpoint AC50): 0.929 µM
minimal effective concentration (hLiMTs [6]; read-out: ATP endpoint MEC): 0.454 µM
AC50 (hLiMTs [6]; read-out: HCS endpoint AC50): 1.09 µM
minimal effective concentration (hLiMTs [6]; read-out: HCS endpoint MEC): 0.399 µM
AC50 (HepaRG spheroids [7]; [14]): 0.4 µM
minimal effective concentration (HepaRG spheroids [7]; HepaRG, read-out: ATP endpoint MEC): 0.4 µM
AC50 (HepaRG spheroids [7]; [15]): 0.4 µM
minimal effective concentration (HepaRG spheroids [7]; HepaRG, read-out: HCS endpoint MEC): 0.4 µM

CC(C)[N+](C)(CCOC(=O)C1c2ccccc2Oc2ccccc21)C(C)C [propantheline]
hLiMTs <10 uM All (hLiMTs [2]): -ve
hLiMTs Cmax max All (hLiMTs [2]; human): -ve
hLiMTs Cmax min All (hLiMTs [2]; human): -ve
HepaRG <10 uM All (HepaRG spheroids [3]): -ve
HepaRG Cmax max All (HepaRG spheroids [3]; human): -ve
HepaRG Cmax min All (HepaRG spheroids [3]; human): -ve
DILI severity category ([8]; in vivo): No
DILI +VE (5-8), DILI -VE (-4) ([8]; ref Chen 2016): -VE
DILI severity category ([8]; ref Chen 2016): vNo-DILI-Concern
PHH ATP <100uM (PHH): -VE
hLiMTs ATP <100uM (hLiMTs [4]): -VE
Bayesian Machine Learning [9]: -VE
In vivo DILI ([10]; ref Proctor 2017): -VE
In vivo DILI ([10]; ref Williams 2019): -VE

Clc1ccccc1CN1CCc2sccc2C1 [ticlopidine]
Human plasma Cmax,u ([1]; unbound plasma Cmax): 0.161 µM
DILI severity category (Chen et al. [2016]) ([8]; LTKB DILIrank category, ref Chen et al. 2016): Most
DILI severity category ([8]; human DILI severity, ref Chen et al.): Most
DILI +VE (5-8), DILI -VE (-4) ([8]; ref Chen 2016): +VE
DILI severity category ([8]; ref Chen 2016): vMost-DILI-Concern
Structural based (HCI) (HepG2 cells; In vitro Assay, ref Tolosa 2012): +VE
DILI in vitro assay prediction, Tolosa (2012) (HepG2 cells; Structural based (HCI), HepG2, ref Tolosa et al. 2012): +VE
PHH/100uM, Proctor (2017) (PHH; 2D PHH, ATP, IC50 threshold 100 µM, ref Proctor et al. 2017): -VE
PHH ATP <100uM (PHH): -VE
hLiMTs ATP <100uM (hLiMTs [4]): +VE (IC50 threshold of 100 µM)
hLiMTs/100uM, Proctor (2017) (hLiMTs [4]; hLiMTs, ATP, IC50 threshold 100 µM, ref Proctor et al. 2017): -VE
hLiMTs ATP <20 x Cmax (PHH spheroids; In vitro Assay, ref Vorrink 2018): +VE (IC20 < 20 × Cmax.tot cut-off)
DILI in vitro assay prediction, Vorrink (2018) (PHH spheroids; PHH spheroids, ATP, 14 days, IC20 < 20 × Cmax.tot, ref Vorrink et al. 2018): +VE (IC20 < 20 × Cmax.tot cut-off)
Bayesian Machine Learning DILI prediction, Williams (2019) ([9]; Bayesian modeling, ref Williams et al. 2019): +VE
Bayesian Machine Learning ([9]; In vitro Assay): +VE
Cmax ([5]; read-out: Human plasma Cmax, total plasma Cmax.tot, median of 9 literature references): 8.07 µM
fu [11]: 0.020
Assigned DILI category ([10]; Chen et al. 2016 or literature alignment, ref Chen et al. 2016): 3
In vivo DILI ([10]; […]): +VE
In vivo DILI ([10]; ref Dawson 2012): +VE
In vivo DILI ([10]; ref Garside 2014): +VE
In vivo DILI ([10]; ref Gustafsson 2014): +VE
In vivo DILI ([10]; ref Porceddu 2012): +VE
In vivo DILI ([10]; ref Proctor 2017): +VE
In vivo DILI ([10]; ref Tolosa 2012): +VE
In vivo DILI ([10]; ref Vorrink 2018): +VE
In vivo DILI ([10]; ref Williams 2019): +VE
In vivo DILI ([10]; ref Xu 2008): +VE
THLE-Null [12]: +VE
in vitro data EC2<=1x Cmax [13]: +VE
in vitro data EC20<=2uM [13]: +VE
Inhibition of rBsep cutoff<1& cmax u>.2 (rBsep): +VE
Inhibition of rBsep cutoff<3 (rBsep): +VE
AC50 (hLiMTs [6]; read-out: ATP endpoint AC50): 10.7 µM
AC50 (hLiMTs [6]; read-out: HCS endpoint AC50): 115 µM
DILI prediction hLiMTs (HCS-MEC) (hLiMTs [6]; [16]): +VE (MEC < 25 × Cmax.tot cut-off)
hLiMTs <25x Avg Cmax ATP (hLiMTs [6]; hLiMTs, ATP endpoint, cut-off <25x Avg Cmax): +ve
hLiMTs <100x Avg Cmaxu ATP (hLiMTs [6]; hLiMTs, ATP endpoint, cut-off <100x Avg Cmaxu): +ve (<100x Avg Cmaxu)
hLiMTs <25x Avg Cmax HCS (hLiMTs [6]; hLiMTs, HCS endpoints, cut-off <25x Avg Cmax): +ve
hLiMTs <100x Avg Cmaxu HCS (hLiMTs [6]; hLiMTs, HCS endpoints, cut-off <100x Avg Cmaxu): -ve
hLiMTs <25x Avg Cmax All (hLiMTs [6]; hLiMTs, all endpoints (ATP and HCS), cut-off <25x Avg Cmax): +ve
hLiMTs Cmax max All (hLiMTs [6]; hLiMTs, all endpoints, Cmax max used): +ve
hLiMTs Cmax min All (hLiMTs [6]; hLiMTs, all endpoints, Cmax min used): +ve
hLiMTs <10 uM All (hLiMTs [6]; hLiMTs, all endpoints, cut-off <10 uM): +ve (<10 uM)
hLiMTs <100x Avg Cmaxu All (hLiMTs [6]; hLiMTs, all endpoints, cut-off <100x Avg Cmaxu): +ve (<100x Avg Cmaxu)
HepaRG <25x Avg Cmax ATP (HepaRG spheroids [7]; HepaRG, ATP endpoint, cut-off <25x Avg Cmax): +ve
HepaRG <100x Avg Cmaxu ATP (HepaRG spheroids [7]; HepaRG, ATP endpoint, cut-off <100x Avg Cmaxu): -ve
HepaRG <25x Avg Cmax HCS (HepaRG spheroids [7]; HepaRG, HCS endpoints, cut-off <25x Avg Cmax): +ve
HepaRG <100x Avg Cmaxu HCS (HepaRG spheroids [7]; HepaRG, HCS endpoints, cut-off <100x Avg Cmaxu): -ve
HepaRG <25x Avg Cmax All (HepaRG spheroids [7]; HepaRG, all endpoints (ATP and HCS), cut-off <25x Avg Cmax): +ve
HepaRG Cmax max All (HepaRG spheroids [7]; HepaRG, all endpoints, Cmax max used): +ve
HepaRG Cmax min All (HepaRG spheroids [7]; HepaRG, all endpoints, Cmax min used): +ve
HepaRG <10 uM All (HepaRG spheroids [7]; HepaRG, all endpoints, cut-off <10 uM): -ve
HepaRG <100x Avg Cmaxu All (HepaRG spheroids [7]; HepaRG, all endpoints, cut-off <100x Avg Cmaxu): -ve
AC50 (HepaRG spheroids [7]; [14]): 56 µM
AC50 (HepaRG spheroids [7]; [15]): 60.8 µM
DILI prediction HepaRG spheroids (HCS-MEC) (HepaRG spheroids [7]; [16]): +VE (MEC < 25 × Cmax.tot cut-off)
